Test results taken from the C3SDB collision cross section collection.

How the values were obtained:
[1] = instrument: TW, calibrated with phosphatidylcholines (ESI+) and phosphatidylethanolamines (ESI-)
[2] = instrument: TW, calibrated with phosphatidylcholines (ESI+) and phosphatidylethanolamines (ESI-), doubly charged cardiolipins calibrated with poly-DL-…
[3] = instrument: DT, single field, calibrated with Agilent tune mix (Agilent)
[4] = [M+H]+; instrument: DT; single field, calibrated with Agilent tune mix (Agilent)

Compound	collision cross section (N2) ([1]; [M+H]+)	collision cross section (N2) ([2]; [M-H]-)	also measured
CCCCCCCCCCCCCCCCCC(=O)N[C@@H](CO)[C@H](O)CCCCCCCCCCCCCCC [Cer(d18:0/18:0)]	263.1 Å²		
CCCCCCCCCCCCCCCCCCCC(=O)N[C@@H](CO)[C@H](O)CCCCCCCCCCCCCCC [Cer(d18:0/20:0)]	269.1 Å²		
CCCCCCCCCCCCC=CC[C@@H](O)[C@H](CO)NC(=O)CC=CCCCCCCCCCCCCCCCCCC [Cer(d18:1/22:1)]	270.2 Å²		collision cross section (N2) ([1]; [M-H]-): 260.2 Å²
CCCCCCCCCCCCC=CC[C@@H](O)[C@H](CO)NC(=O)CC=CCCCCCCCCCCCCCCCCCCCCCC [Cer(d18:1/26:1)]	282.4 Å²		
CCCCCCCCCCCCC=CC[C@@H](O)[C@H](CO[C@@H]1O[C@H](CO)[C@@H](O)C(O)C1O)NC(=O)CC=CCCCCCCCCCCCCCC (some centres undefined) [GlcCer(d18:1/18:1)]	281.8 Å²		
CCCCCCCCCCCCC=CC[C@@H](O)[C@H](CO[C@@H]1O[C@H](CO)[C@@H](O)C(O)C1O)NC(=O)CC=CCCCCCCCCCCCCCCCCCCCC (some centres undefined) [GlcCer(d18:1/24:1)]	298.2 Å²		collision cross section (N2) ([1]; [M+Na]+): 297.3 Å²
CCCCC/C=C\C/C=C\C/C=C\CCCCCCC(=O)OC[C@@H](O)COP(=O)([O-])OCC[N+](C)(C)C [LPC(20:3)]	239 Å²		
CC/C=C\C/C=C\C/C=C\C/C=C\CCCCCCC(=O)OC[C@@H](O)COP(=O)([O-])OCC[N+](C)(C)C [LPC(20:4)]	232.4 Å²		
CCCCCCCCCCCCCCC(=O)OC[C@@H](O)COP(=O)([O-])OCC[NH3+] [LPE(15:0/0:0)]		202.83 Å²	collision cross section (N2) ([2]; [M+H]+): 209.91 Å²; collision cross section (N2) ([2]; [M+Na]+): 216.13 Å²
CCCCCCCCCCCCCCCC(=O)OC[C@@H](O)COP(=O)([O-])OCC[NH3+] [LPE(16:0/0:0)]		206.89 Å²	collision cross section (N2) ([2]; [M+H]+): 213.91 Å²; collision cross section (N2) ([2]; [M+Na]+): 220.01 Å²
CCCCCCC1CC1CCCCCCCC(=O)OC[C@@H](O)COP(=O)([O-])OCC[NH3+] (some centres undefined) [LPE(17:1/0:0)]		208.15 Å²	collision cross section (N2) ([2]; [M+H]+): 212.27 Å²; collision cross section (N2) ([2]; [M+Na]+): 219.72 Å²
CCCCCC/C=C/CCCCCCCC(=O)OC[C@@H](O)COP(=O)(O)OCC(O)CO (some centres undefined) [LPG(16:1)]		210.68 Å²	
CCCCCCCCC1CC1CCCCCCCC(=O)O[C@H](CO)COP(=O)(O)OCC(O)CO (some centres undefined) [LPG(19:1)]		220.89 Å²	
CCCCCC/C=C\CCCCCCCC(=O)OCC(COP(=O)(O)O)OC(=O)CCCCCCCCCCCCCCC (centres undefined) [PA(32:1)]		249.02 Å²	
CCCCCCCC/C=C\CCCCCCCC(=O)OC(COC(=O)CCCCCCCCCCCCCCC)COP(=O)(O)O (centres undefined) [PA(34:1)]		255.63 Å²	
CCCCCC/C=C\CCCCCCCC(=O)OCC(COP(=O)(O)O)OC(=O)CCCCCCC/C=C\CCCCCCCC (centres undefined) [PA(34:2)]		253.68 Å²	
CCCCCCCC/C=C\CCCCCCCC(=O)OCC(COP(=O)(O)O)OC(=O)CCCCCCC/C=C\CCCCCCCC (centres undefined) [PA(36:2)]		259.86 Å²	
CCCCC/C=C\C/C=C\CCCCCCCC(=O)O[C@H](COC(=O)CCCCCCCCCCCCCCCCC)COP(=O)(O)O [PA(36:2)]			collision cross section (N2) ([1]; [M-H]-): 259.5 Å²; collision cross section (N2) ([3]; [M+NH4]+): 274.5 Å²; collision cross section (N2) ([3]; [M+Na]+): 274 Å²; collision cross section (N2) ([3]; [M-H]-): 260.2 Å²

Compound	collision cross section (N2) ([1]; [M+H]+)	collision cross section (N2) ([2]; [M-H]-)	also measured
CCCCC/C=C\C/C=C\C/C=C\CCCCC(=O)OC[C@H](COP(=O)([O-])OCC[N+](C)(C)C)OC(=O)CCCCCCC/C=C\CCCCCCCC [PC(36:4)]	286 Å²		collision cross section (N2) ([1]; [M+CH3COO]-): 290.8 Å²; collision cross section (N2) ([3]; [M+HCOO]-): 288.4 Å²
CC/C=C\C/C=C\C/C=C\C/C=C\CCCCC(=O)OC[C@H](COP(=O)([O-])OCC[N+](C)(C)C)OC(=O)CCCCC/C=C\C/C=C\C/C=C\C/C=C\CCCCC [PC(40:8)]	291.6 Å²		
CCCCCCCCCCCCCCCC(=O)OCC(COP(=O)(O)OCCN)OC(=O)CCCCCCCC1CC1CCCC (centres undefined) [PE(31:1)]		252.34 Å²	collision cross section (N2) ([2]; [M+H]+): 265.08 Å²
CCCCCCCCCCCCCCCC(=O)OCC(COP(=O)(O)OCCN)OC(=O)CCCCCCCCCCCCCCC (centres undefined) [PE(32:0)]		257.29 Å²	collision cross section (N2) ([2]; [M+H]+): 272.49 Å²
CCCCCC/C=C\CCCCCCCC(=O)OCC(COP(=O)(O)OCCN)OC(=O)CCCCCCCC1CC1CCCCCCCC (centres undefined) [PE(35:2)]		265.69 Å²	collision cross section (N2) ([2]; [M+H]+): 275.82 Å²
CCCCCCCC/C=C\CCCCCCCC(=O)OC(COC(=O)CCCCCCCCCCCCCCCCC)COP(=O)(O)OCCN (centres undefined) [PE(36:1)]		270.25 Å²	collision cross section (N2) ([2]; [M+H]+): 280.06 Å²
CCCCCC/C=C\CCCCCCCC(=O)O[C@H](CO/C=C\CCCCCCCCCCCCCCCCCC)COP(=O)(O)OCCN [PE(p36:1)]	279.7 Å²		collision cross section (N2) ([1]; [M-H]-): 267.3 Å²
CC/C=C\C/C=C\C/C=C\C/C=C\C/C=C\CCCC(=O)O[C@H](CO/C=C\CCCCCCCCCCCCCC)COP(=O)(O)OCCN [PE(p36:5)]	274.2 Å²		
CCCCC/C=C\C/C=C\C/C=C\CCCCCCC(=O)O[C@H](CO/C=C\CCCCCCCCCCCCCCCC)COP(=O)(O)OCCN [PE(p38:3)]	281.4 Å²		collision cross section (N2) ([1]; [M-H]-): 270.9 Å²
CCCCCC/C=C\CCCCCCCC(=O)OCC(COP(=O)(O)OCC(O)CO)OC(=O)CCCCCCCCCCCCC (centres undefined) [PG(30:1)]			collision cross section (N2) ([2]; [M+Na]+): 268.07 Å²
CCCCCC/C=C\CCCCCCCC(=O)OCC(COP(=O)(O)OCC(O)CO)OC(=O)CCCCCCC/C=C\CCCCCC (centres undefined) [PG(32:2)]		261.31 Å²	collision cross section (N2) ([2]; [M+Na]+): 272.38 Å²
CCCCCCCCCCCCCCCC(=O)OCC(COP(=O)(O)OCC(O)CO)OC(=O)CCCCCCCC1CC1CCCCCC (centres undefined) [PG(33:1)]		266.36 Å²	collision cross section (N2) ([2]; [M+Na]+): 280.56 Å²
CCCCCCCC/C=C\CCCCCCCC(=O)OC(COC(=O)CCCCCCCCCCCCCCC)COP(=O)(O)OCC(O)CO (centres undefined) [PG(34:1)]		270.03 Å²	collision cross section (N2) ([2]; [M+Na]+): 281.03 Å²
CCCCCCCC/C=C\CCCCCCCC(=O)OC(COC(=O)CCCCCCCCCCCCCCCCC)COP(=O)(O)OCC(O)CO (centres undefined) [PG(36:1)]		276.25 Å²	
CCCCC/C=C\C/C=C\C/C=C\C/C=C\CCCC(=O)O[C@H](COC(=O)CCCCCCC/C=C\CCCCCCCC)COP(=O)(O)O[C@H]1C(O)C(O)C(O)[C@@H](OP(=O)(O)O)C1O (some centres undefined) [PIP(38:5)]			collision cross section (N2) ([1]; [M+H-H2O]+): 299.7 Å²
CCCCCCCCCCCCC=CC[C@@H](O)[C@H](COP(=O)([O-])OCC[N+](C)(C)C)NC(=O)CCCCCCCCCCCCCCC [SM(d18:1/16:0)]	281.1 Å²		
CCCCCCCCCCCCC=CC[C@@H](O)[C@H](COP(=O)([O-])OCC[N+](C)(C)C)NC(=O)CCCCCCCCCCCCCCCCC [SM(d18:1/18:0)]	286.6 Å²		collision cross section (N2) [4]: 290.2 Å²
CCCCCCCCCCCCC=CC[C@@H](O)[C@H](COP(=O)([O-])OCC[N+](C)(C)C)NC(=O)CC=CCCCCCCCCCCCCCCCCCC [SM(d18:1/22:1)]	295 Å²		
